biological target: recombinant human nicotinic acid receptor (NAR) (Homo sapiens, UniProt Q8TDS4); assay: Nicotinic Acid Receptor Assay: inhibition of forskolin-stimulated cAMP accumulation in CHO cells (MesoScale Discovery cAMP kit); assay type: cell-based; settings: CHO cells expressing recombinant human NAR; forskolin-stimulated cAMP; read-out: NA EC50 camp
Experimental: The nicotinic acid receptor agonist activity of the inventive compounds was determined by following the inhibition of forskolin-stimulated cAMP accumulation in cells using the MesoScale Discovery cAMP detection kit following the manufacture's protocol. Briefly, Chinese Hamster Ovary (CHO) cells expressing recombinant human nicotinic acid receptor (NAR) were harvested enzymatically, washed 1× in phosphate buffered saline (PBS) and resuspended in PBS containing 0.5 mM IBMX at 3×10^6 cells/mL. Ten μL of cell suspension was added to each well of a 384-well plate which contained 10 μL of test compounds. Test compounds were diluted with PBS containing 6 μM of forskolin. Plates were incubated for 30 minutes at room temperature after the addition of cells. Lysis buffer containing cAMP-Tag was added to each well (10 μL/well) as per the manufacturer's protocol. Plates were then incubated from 45 minutes to overnight. Prior to reading, 10 μL of read buffer was added to each well, and the plate was read in a Sector 6000 plate imager. The signal was converted to cAMP concentration using a standard curve run on each plate.

recombinant human nicotinic acid receptor (NAR), sequence (Q8TDS4 whole entry): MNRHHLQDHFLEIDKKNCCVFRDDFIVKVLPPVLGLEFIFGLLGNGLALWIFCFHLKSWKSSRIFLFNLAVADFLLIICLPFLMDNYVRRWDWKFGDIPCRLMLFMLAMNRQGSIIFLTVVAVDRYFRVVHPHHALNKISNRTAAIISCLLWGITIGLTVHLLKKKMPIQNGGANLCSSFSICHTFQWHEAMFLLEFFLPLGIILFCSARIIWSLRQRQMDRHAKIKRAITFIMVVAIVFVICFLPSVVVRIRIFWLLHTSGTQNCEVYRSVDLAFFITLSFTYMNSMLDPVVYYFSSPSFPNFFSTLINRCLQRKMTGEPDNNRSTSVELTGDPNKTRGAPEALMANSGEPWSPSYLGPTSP

**Q.** How did the EC50 turn out when CCc1cc(=O)oc2nc(OCc3cccc(-c4ccccc4F)c3)[nH]c(=O)c12 [Compound 559] was run?
**A.** Its EC50 is 100 to 1000 nM.

**Q.** With CCc1cc(=O)oc2nc(OCc3cccc(-c4cccc5cccnc45)c3)[nH]c(=O)c12 [Compound 560] as the compound, how does the EC50 read?
**A.** Its EC50 is greater than 1000 nM.

**Q.** How did the EC50 turn out when CCc1cc(=O)oc2nc(OCc3cccc(-c4cccc(OC)c4)c3)[nH]c(=O)c12 [Compound 561] was run?
**A.** Its EC50 is 100 to 1000 nM.

**Q.** With CCc1cc(=O)oc2nc(OCc3cccc(-c4ccc(OC)nc4)c3)[nH]c(=O)c12 [Compound 562] as the compound, how does the EC50 read?
**A.** Its EC50 is 100 to 1000 nM.

**Q.** For CCc1cc(=O)oc2nc(OCc3cccc(-c4cccnc4)c3)[nH]c(=O)c12 [Compound 563], which EC50 is on record?
**A.** The EC50 was 100 to 1000 nM.

**Q.** CCc1cc(=O)oc2nc(OCc3cccc(-c4ccccc4Cl)c3)[nH]c(=O)c12 [Compound 564] was tested. Which EC50 did it give?
**A.** Its EC50 is 100 to 1000 nM.

**Q.** Which EC50 does the source give for CCc1cc(=O)oc2nc(OCc3cccc(-c4ccc(OC)c(OC)c4)c3)[nH]c(=O)c12 [Compound 565] here?
**A.** Its EC50 is 100 to 1000 nM.

**Q.** How did the EC50 turn out when CCc1cc(=O)oc2nc(OCc3cccc(-c4ccc(F)cc4)c3)[nH]c(=O)c12 [Compound 566] was run?
**A.** Its EC50 is greater than 1000 nM.

**Q.** CCc1cc(=O)oc2nc(OCc3cccc(C(F)(F)F)n3)[nH]c(=O)c12 [Compound 568] was tested. Which EC50 did it give?
**A.** Its EC50 is 100 to 1000 nM.

**Q.** How did the EC50 turn out when CCc1cc(=O)oc2nc(OC(C)c3ccc(-c4ccccc4)cc3F)[nH]c(=O)c12 (stereo not shown) [Compound 569] was run?
**A.** The EC50 was 0.001 to 100 nM.

**Q.** For CCc1cc(=O)oc2nc(OCc3ccccc3-n3ccnc3)[nH]c(=O)c12 [Compound 570], which EC50 is on record?
**A.** The EC50 was 100 to 1000 nM.

**Q.** With CCc1cc(=O)oc2nc(OCc3ccccc3-n3cncn3)[nH]c(=O)c12 [Compound 571] as the compound, how does the EC50 read?
**A.** Its EC50 is 100 to 1000 nM.

**Q.** With CCc1cc(=O)oc2nc(OCc3ccc(-c4cccc(OC)c4)cc3F)[nH]c(=O)c12 [Compound 572] as the compound, how does the EC50 read?
**A.** The EC50 was 100 to 1000 nM.

**Q.** With CCc1cc(=O)oc2nc(OCc3ccc(-c4cccc(C(F)(F)F)c4)cc3F)[nH]c(=O)c12 [Compound 573] as the compound, how does the EC50 read?
**A.** The EC50 was 100 to 1000 nM.

**Q.** CCc1cc(=O)oc2nc(OCc3ccc(-c4ccncc4)cc3F)[nH]c(=O)c12 [Compound 574] was tested. Which EC50 did it give?
**A.** Its EC50 is 100 to 1000 nM.

**Q.** How did the EC50 turn out when CCc1cc(=O)oc2nc(OCCN3CCCCC3)[nH]c(=O)c12 [Compound 578] was run?
**A.** The EC50 was greater than 1000 nM.

**Q.** With CCc1cc(=O)oc2nc(OCCN3CCCC3)[nH]c(=O)c12 [Compound 579] as the compound, how does the EC50 read?
**A.** Its EC50 is greater than 1000 nM.

**Q.** C=COCCOc1nc2oc(=O)cc(CC)c2c(=O)[nH]1 [Compound 581] was tested. Which EC50 did it give?
**A.** The EC50 was greater than 1000 nM.

**Q.** For CCc1cc(=O)oc2nc(OCC(N)=O)[nH]c(=O)c12 [Compound 582], which EC50 is on record?
**A.** The EC50 was 100 to 1000 nM.

**Q.** CCc1cc(=O)oc2nc(OCc3ccccc3-n3ccnc3C)[nH]c(=O)c12 [Compound 583] was tested. Which EC50 did it give?
**A.** The EC50 was 100 to 1000 nM.

**Q.** With CCc1cc(=O)oc2nc(OCc3ccccc3-c3ccc(F)c(C#N)c3)[nH]c(=O)c12 [Compound 584] as the compound, how does the EC50 read?
**A.** The EC50 was 100 to 1000 nM.

**Q.** How did the EC50 turn out when CCc1cc(=O)oc2nc(OCc3ccccc3-c3cccc(C(N)=O)c3)[nH]c(=O)c12 [Compound 585] was run?
**A.** The EC50 was 100 to 1000 nM.

**Q.** CCc1cc(=O)oc2nc(OCCSc3ccc(Cl)cc3)[nH]c(=O)c12 [Compound 587] was tested. Which EC50 did it give?
**A.** The EC50 was greater than 1000 nM.

**Q.** For CCc1cc(=O)oc2nc(OCCS(C)(=O)=O)[nH]c(=O)c12 [Compound 588], which EC50 is on record?
**A.** The EC50 was greater than 1000 nM.

**Q.** CCc1cc(=O)oc2nc(OCCS(=O)(=O)c3ccc(Cl)cc3)[nH]c(=O)c12 [Compound 591] was tested. Which EC50 did it give?
**A.** Its EC50 is 0.001 to 100 nM.

**Q.** For CCc1cc(=O)oc2nc(OCCN3CCCC3=O)[nH]c(=O)c12 [Compound 592], which EC50 is on record?
**A.** Its EC50 is 100 to 1000 nM.

**Q.** For CCc1cc(=O)oc2nc(OCC3CCCCO3)[nH]c(=O)c12 (stereo not shown) [Compound 593], which EC50 is on record?
**A.** Its EC50 is greater than 1000 nM.

**Q.** With CCc1cc(=O)oc2nc(OCC3CCCCN3C)[nH]c(=O)c12 (stereo not shown) [Compound 594] as the compound, how does the EC50 read?
**A.** Its EC50 is greater than 1000 nM.

**Q.** For CCc1cc(=O)oc2nc(OCCOC(C)C)[nH]c(=O)c12 [Compound 595], which EC50 is on record?
**A.** Its EC50 is 100 to 1000 nM.

same assay, conditions: NA EC50 camp (nM), CHO cells expressing recombinant human NAR; forskolin-stimulated cAMP

**Q.** With CCc1cc(=O)oc2nc(OCc3cccc(-c4cccc(C#N)c4)c3)[nH]c(=O)c12 [Compound 567] as the compound, how does the EC50 read?
**A.** Its EC50 is 100 to 1000 nM.

**Q.** How did the EC50 turn out when CCc1cc(=O)oc2nc(OCc3ccc(-c4cncnc4)cc3F)[nH]c(=O)c12 [Compound 575] was run?
**A.** Its EC50 is 100 to 1000 nM.

**Q.** CCOCCOc1nc2oc(=O)cc(CC)c2c(=O)[nH]1 [Compound 580] was tested. Which EC50 did it give?
**A.** The EC50 was greater than 1000 nM.

**Q.** Which EC50 does the source give for CCc1cc(=O)oc2nc(OCC#CC3CC3)[nH]c(=O)c12 [Compound 589] here?
**A.** The EC50 was 0.001 to 100 nM.

**Q.** Which EC50 does the source give for CC#CCCOc1nc2oc(=O)cc(CC)c2c(=O)[nH]1 [Compound 590] here?
**A.** The EC50 was 100 to 1000 nM.

From patent US7737155B2, “Nitrogen-containing heterocyclic compounds and methods of use thereof” (Schering Corporation, priority 2005, dated 2010)
